Laboratory results: patent publication US20240376097A1, “BCL-2 Inhibitor” (BeiGene Ltd., priority 2020, published 2024)
Where two headings read alike, the source gives them in different places.

What was measured:
Mouse PK Study = assay type: in vivo; settings: plasma, male CD-1 mouse
Procedure: Biological Example: Mouse PK Study
The pharmacokinetics of compounds were evaluated in male CD-1 mouse via Intravenous (dose of 1 mg/kg) and Oral Administration (dose of 10 mg/kg). For intravenous administration study, test compounds were dissolved in DMSO/EtOH/Cremophor EL/D5W (2.5/10/20/67.5, by volume) and injected with a 1 mg/kg dose via tail vein. For oral administration study, test compounds were dissolved in PEG400/Phosal 50 PG/EtOH (30/60/10, by volume) and administrated to mice at 10 mg/kg by gavage. Blood was collected into EDTA-K2 anticoagulant tube at 5 (IV only). 15, and 30 min and 1, 2, 4, 8 and 24 h after administration. Approximately 30 μL blood was collected at each time point. And then the blood was centrifuged at 3000 g for 5 min at 4° C. using a centrifuge to obtain the plasma. The plasma sample was transferred into a tube and stored in a freezer at approximately −20° C. until the determination of concentration by LC-MS/MS. Pharmacokinetic parameter were estimated by using WinNonlin software (version 8.1, Pharsight Corporation, CA, USA) with non-compartmental method. The following pharmacokinetic parameters were calculated, whenever possible from the plasma concentration-time data: CL, Vd, T1/2, AUClast, AUCinf for IV administration and Tmax, Cmax, AUClast, AUCinf, T1/2 for PO administration. All animals are free fed before experiment. For comparison purpose, the PK results of certain compounds in previous disclosure were obtained using the same methods.

[1] = biological target: recombinant human Bcl-2-G101V protein (Homo sapiens (Human), UniProt P10415, G101V); assay: Bcl-2-G101V TR-FRET Assay; assay type: binding; settings: Bcl-2 G101V mutant, TR-FRET; read-out: Biochemical assay (IC50, nM) Bcl-2 G101V
Procedure, shortened: (§1)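 IC50 values derive from four-parameter logistic fitting of percent inhibition data. That inhibition of ligand binding to Bcl-2-G101V is computed from the 490 nm/520 nm TR-FRET ratio under 337 nm excitation, over a rising compound concentration series.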

[2] = test system: recombinant human Bcl-2-G101V protein; assay: Bcl-2-G101V TR-FRET Assay; assay type: binding; settings: for Ratio of Bcl-2 G101V/WT: ratio of biochemical IC50 Bcl-2 G101V / Bcl-2 WT; for ratio of IC50 of Bcl-2 G101V/Bcl-2 wt, compared with Example F132b in WO2019210828 and ABT-199 (venetoclax): comparison in words
Procedure, shortened: as §1

[3] = biological target: Recombinant human Bcl-2 protein (Homo sapiens (Human), UniProt P10415); assay: Bcl-2 TR-FRET Assay; assay type: binding
Procedure, shortened: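 Displacement of FITC-labelled Bak peptide (0.5 nM) from 0.05 nM human Bcl-2, detected by TR-FRET with Tb-cryptate anti-6His antibody after 1 h at room temperature. Compounds, 10-point series, preincubated 0.5 h with protein in 20 mM potassium phosphate pH 7.5, 50 mM NaCl. IC50s fitted by four-parameter logistic.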

[4] = Bcl-2 wild type, TR-FRET, read-out: Biochemical assay (IC50, nM) Bcl-2 WT
[5] = wild type Bcl-2, unit inferred, read-out: Bcl-2 WT

## COc1ccc(CN2CCN(C3CC4(CCN(c5ccc(C(=O)NS(=O)(=O)c6ccc(NCC7(F)CCOCC7)c([N+](=O)[O-])c6)c(Oc6cnc7[nH]ccc7c6)c5)CC4)C3)[C@H](c3ccccc3C(C)C)C2)cc1 (single isomer, unassigned) [Example 32, (R or S)-2-((1H-pyrrolo[2,3-b]pyridin-5-yl)oxy)-N-((4-(((4-fluorotetrahydro-2H-pyran-4-yl)methyl)amino)-3-nitrophenyl)sulfonyl)-4-(2-(2-(2-isopropylphenyl)-4-(4-methoxybenzyl)piperazin-1-yl)-7-azaspiro[3.5]nonan-7-yl)benzamide]
Mouse PK Study; Iv dosing (1 mg/kg)
  AUC(0-t): 10500 ng·h/mL
  Vd: 0.48 L/kg
  clearance: 1.5 mL/min/kg
Mouse PK Study; Po dosing (10 mg/kg)
  AUC(0-t): 21200 ng·h/mL
  Cmax: 1440 ng/mL
[1]
  IC50: 0.28 nM
[2]
  Ratio of Bcl-2 G101V/WT: 2.9
[3]; [4]
  IC50: 0.096 nM
[3]; [5]
  IC50: 0.096 nM

## CC(C)c1ccccc1[C@@H]1CN(Cc2ccc(F)c(F)c2)CCN1C1CC2(CCN(c3ccc(C(=O)NS(=O)(=O)c4ccc(NC[C@H]5CC[C@](C)(O)CC5)c([N+](=O)[O-])c4)c(Oc4cnc5[nH]ccc5c4)c3)CC2)C1 (single isomer, unassigned) [Example 52a, 2-((1H-pyrrolo[2,3-b]pyridin-5-yl)oxy)-4-(2-((R or S)-4-(3,4-difluorobenzyl)-2-(2-isopropylphenyl)piperazin-1-yl)-7-azaspiro[3.5]nonan-7-yl)-N-((4-((((1r,4r)-4-hydroxy-4-methylcyclohexyl)methyl)amino)-3-nitrophenyl)sulfonyl)benzamide]
Mouse PK Study; Iv dosing (1 mg/kg)
  AUC(0-t): 6510 ng·h/mL
  Vd: 0.62 L/kg
  clearance: 2.6 mL/min/kg
Mouse PK Study; Po dosing (10 mg/kg)
  AUC(0-t): 20700 ng·h/mL
  Cmax: 2140 ng/mL
[1]
  IC50: 0.68 nM
[2]
  Ratio of Bcl-2 G101V/WT: 4.2
[3]; [4]
  IC50: 0.16 nM
[3]; [5]
  IC50: 0.16 nM

## COc1ccc(CN2CCN(C3CC4(CCN(c5ccc(C(=O)NS(=O)(=O)c6ccc(NC[C@H]7CC[C@](C)(O)CC7)c([N+](=O)[O-])c6)c(Oc6cnc7[nH]ccc7c6)c5)CC4)C3)[C@H](c3ccccc3C(C)C)C2)cc1 [Example 19a, 2-((1H-pyrrolo[2,3-b]pyridin-5-yl)oxy)-N-((4-((((1r,4r)-4-hydroxy-4-methylcyclohexyl)methyl)amino)-3-nitrophenyl)sulfonyl)-4-(2-((R)-2-(2-isopropylphenyl)-4-(4-methoxybenzyl)piperazin-1-yl)-7-azaspiro[3.5]nonan-7-yl)benzamide]
Mouse PK Study; Iv dosing (1 mg/kg)
  AUC(0-t): 12300 ng·h/mL
  Vd: 0.48 L/kg
  clearance: 1.4 mL/min/kg
Mouse PK Study; Po dosing (10 mg/kg)
  AUC(0-t): 20000 ng·h/mL
  Cmax: 1590 ng/mL
[1]
  IC50: 0.18 nM
[2]
  ratio of IC50 of Bcl-2 G101V/Bcl-2 wt, compared with Example F132b in WO2019210828 and ABT-199 (venetoclax): much lower
  Ratio of Bcl-2 G101V/WT: 3.2
[3]; [4]
  IC50: 0.057 nM
[3]; [5]
  IC50: 0.057 nM

## COc1cc(CN2CCN(C3CC4(C3)CN(c3ccc(C(=O)NS(=O)(=O)c5ccc(NC[C@H]6CC[C@](C)(O)CC6)c([N+](=O)[O-])c5)c(Oc5cnc6[nH]cc(F)c6c5)c3)C4)[C@H](c3ccccc3C(C)C)C2)ccc1C1CC1 [Example 232, 4-(6-((R)-4-(4-cyclopropyl-3-methoxybenzyl)-2-(2-isopropylphenyl)piperazin-1-yl)-2-azaspiro[3.3]heptan-2-yl)-2-((3-fluoro-1H-pyrrolo[2,3-b]pyridin-5-yl)oxy)-N-((4-((((1r,4r)-4-hydroxy-4-methylcyclohexyl)methyl)amino)-3-nitrophenyl)sulfonyl)benzamide]
Mouse PK Study; Iv dosing (1 mg/kg)
  AUC(0-t): 14400 ng·h/mL
  Vd: 1.2 L/kg
  clearance: 1.2 mL/min/kg
Mouse PK Study; Po dosing (10 mg/kg)
  AUC(0-t): 18300 ng·h/mL
  Cmax: 1090 ng/mL
[1]
  IC50: 1.3 nM
[2]
  ratio of IC50 of Bcl-2 G101V/Bcl-2 wt, compared with Example F132b in WO2019210828 and ABT-199 (venetoclax): much lower
  Ratio of Bcl-2 G101V/WT: 1.8
[3]; [4]
  IC50: 0.7 nM
[3]; [5]
  IC50: 0.59 nM
